The values that follow come from patent US9663496B2, “AMPK-activating heterocyclic compounds and methods for using the same” (Rigel Pharmaceuticals, Inc., priority 2010, dated 2017).

The target of this experiment is AMPK. The experiment in a line: AMPK activation, enzyme-linked immunosorbent assay. In kind it is biochemical. As to conditions: EC50 for AMPK activation, ELISA. In a few lines: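 Read-out: immunodetected kinase activation after compound exposure, run with commercial kit reagents.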
(In general: In an ELISA, binding on a coated surface is turned into a signal by an enzyme label.)
In the case of `CS(=O)(=O)c1ccc(OC2CCN(C(=O)c3cnc(C(=O)NC4CCN(Cc5ccc(C#N)cc5)CC4)cn3)CC2)cc1` [Compound 218, N-(1-(4-cyanobenzyl)piperidin-4-yl)-5-(4-(4-(methylsulfonyl)phenoxy)piperidine-1-carbonyl)pyrazine-2-carboxamide], the 50% effective concentration (EC50) was under 0.5 µM. Regarding `N#Cc1ccc(CN2CCC(NC(=O)c3cnc(C(=O)N4CCC(C(=O)c5ccc(N6CCCC6)cc5)CC4)cn3)CC2)cc1` [Compound 219, N-(1-(4-cyanobenzyl)piperidin-4-yl)-5-(4-(4-(pyrrolidin-1-yl)benzoyl)piperidine-1-carbonyl)pyrazine-2-carboxamide], the EC50 is under 0.5 µM.

As for `CN1CCN(c2ccc(C(=O)C3CCN(C(=O)c4cnc(C(=O)NC5CCN(Cc6ccc(C#N)cc6)CC5)cn4)CC3)cc2)CC1` [Compound 220, N-(1-(4-cyanobenzyl)piperidin-4-yl)-5-(4-(4-(4-methylpiperazin-1-yl)benzoyl)piperidine-1-carbonyl)pyrazine-2-carboxamide], the EC50 is under 0.5 µM. In turn, `CS(=O)(=O)c1ccc(C(=O)C2CCN(C(=O)c3ccc(C(=O)NC4CCN(Cc5ccc(C#N)cc5)CC4)cn3)CC2)cc1` [Compound 221, N-(1-(4-cyanobenzyl)piperidin-4-yl)-6-(4-(4-(methylsulfonyl)benzoyl)piperidine-1-carbonyl)nicotinamide] had an EC50 of 1 to 5 µM. In the case of `CS(=O)(=O)c1ccc(C(=O)C2CCN(C(=O)c3ccc(C(=O)NC4CCN(Cc5ccc(F)cc5)CC4)cn3)CC2)cc1` [Compound 222, N-(1-(4-fluorobenzyl)piperidin-4-yl)-6-(4-(4-(methylsulfonyl)benzoyl)piperidine-1-carbonyl)nicotinamide] it was 1 to 5 µM; in that of `COc1ccc(CN2CCC(NC(=O)c3ccc(C(=O)N4CCC(C(=O)c5ccc(S(C)(=O)=O)cc5)CC4)nc3)CC2)cc1` [Compound 223, N-(1-(4-methoxybenzyl)piperidin-4-yl)-6-(4-(4-(methylsulfonyl)benzoyl)piperidine-1-carbonyl)nicotinamide], 1 to 5 µM. The figure for `CS(=O)(=O)c1ccc(C(=O)C2CCN(C(=O)c3ccc(C(=O)Nc4ccc(Oc5ccc(F)cc5)nc4)cn3)CC2)cc1` [Compound 224, N-(6-(4-fluorophenoxy)pyridin-3-yl)-6-(4-(4-(methylsulfonyl)benzoyl)piperidine-1-carbonyl)nicotinamide] is under 0.5 µM; for `CS(=O)(=O)c1ccc(C(=O)C2CCN(C(=O)c3ccc(C(=O)NC4CCN(Cc5ccc(F)cc5)CC4)nc3)CC2)cc1` [Compound 225, N-(1-(4-fluorobenzyl)piperidin-4-yl)-5-(4-(4-(methylsulfonyl)benzoyl)piperidine-1-carbonyl)picolinamide] it is under 0.5 µM. The compound `CS(=O)(=O)c1ccc(OC2CCN(C(=O)c3ccc(C(=O)NC4CCN(Cc5ccc(F)cc5)CC4)nc3)CC2)cc1` [Compound 226, N-(1-(4-fluorobenzyl)piperidin-4-yl)-5-(4-(4-(methylsulfonyl)phenoxy)piperidine-1-carbonyl)picolinamide] displayed a 50% effective concentration (EC50) of under 0.5 µM. The compound `CS(=O)(=O)c1ccc(OC2CCN(C(=O)c3ccc(C(=O)NC4CCN(Cc5ccc(C#N)cc5)CC4)nc3)CC2)cc1` [Compound 227, N-(1-(4-cyanobenzyl)piperidin-4-yl)-5-(4-(4-(methylsulfonyl)phenoxy)piperidine-1-carbonyl)picolinamide] gave an EC50 of under 0.5 µM. The figure for `CS(=O)(=O)c1ccc(C(=O)C2CCN(C(=O)c3ccc(C(=O)NC4CCN(Cc5ccc(C#N)cc5)CC4)nc3)CC2)cc1` [Compound 228, N-(1-(4-cyanobenzyl)piperidin-4-yl)-5-(4-(4-(methylsulfonyl)benzoyl)piperidine-1-carbonyl)picolinamide] is under 0.5 µM; for `CS(=O)(=O)c1ccc(C(=O)C2CCN(C(=O)c3ccc(C(=O)NC4CCN(Cc5ccc(N6CCCC6)cc5)CC4)cn3)CC2)cc1` [Compound 229, 6-(4-(4-(methylsulfonyl)benzoyl)piperidine-1-carbonyl)-N-(1-(4-(pyrrolidin-1-yl)benzyl)piperidin-4-yl)nicotinamide] it is 1 to 5 µM; for `CS(=O)(=O)c1ccc(OC2CCN(C(=O)c3ccc(C(=O)NC4CCN(Cc5ccc(N6CCCC6)cc5)CC4)cn3)CC2)cc1` [Compound 230, 6-(4-(4-(methylsulfonyl)phenoxy)piperidine-1-carbonyl)-N-(1-(4-(pyrrolidin-1-yl)benzyl)piperidin-4-yl)nicotinamide] it is 0.5 to 1 µM.

The compound `CS(=O)(=O)c1ccc(OC2CCN(C(=O)c3ccc(C(=O)Nc4ccc(Oc5ccc(F)cc5)nc4)nc3)CC2)cc1` [Compound 231, N-(6-(4-fluorophenoxy)pyridin-3-yl)-5-(4-(4-(methylsulfonyl)phenoxy)piperidine-1-carbonyl)picolinamide] had a concentration giving a half-maximal response (EC50) of under 0.5 µM. The compound `CS(=O)(=O)c1ccc(C(=O)C2CCN(C(=O)c3ccc(C(=O)Nc4ccc(Oc5ccc(F)cc5)nc4)nc3)CC2)cc1` [Compound 232, N-(6-(4-fluorophenoxy)pyridin-3-yl)-5-(4-(4-(methylsulfonyl)benzoyl)piperidine-1-carbonyl)picolinamide] gave an EC50 of under 0.5 µM. In the case of `CS(=O)(=O)c1ccc(C(=O)C2CCN(C(=O)c3ccc(C(=O)NC4CCN(Cc5ccc(N6CCCC6)cc5)CC4)nc3)CC2)cc1` [Compound 233, 5-(4-(4-(methylsulfonyl)benzoyl)piperidine-1-carbonyl)-N-(1-(4-(pyrrolidin-1-yl)benzyl)piperidin-4-yl)picolinamide] it was under 0.5 µM. With `COc1ccc(CN2CCC(NC(=O)c3ccc(C(=O)N4CCC(C(=O)c5ccc(S(C)(=O)=O)cc5)CC4)cn3)CC2)cc1` [Compound 234, N-(1-(4-methoxybenzyl)piperidin-4-yl)-5-(4-(4-(methylsulfonyl)benzoyl)piperidine-1-carbonyl)picolinamide], the EC50 was under 0.5 µM.

Take `CS(=O)(=O)c1ccc(OC2CCN(C(=O)c3ccc(C(=O)Nc4ccc(Oc5ccc(F)cc5)nc4)cn3)CC2)cc1` [Compound 235, N-(6-(4-fluorophenoxy)pyridin-3-yl)-6-(4-(4-(methylsulfonyl)phenoxy)piperidine-1-carbonyl)nicotinamide]: the EC50 is under 0.5 µM.

Consider `CS(=O)(=O)c1ccc(OC2CCN(C(=O)c3ccc(C(=O)NC4CCN(Cc5cc(F)cc(F)c5)CC4)cn3)CC2)cc1` [Compound 236, N-(1-(3,5-difluorobenzyl)piperidin-4-yl)-6-(4-(4-(methylsulfonyl)phenoxy)piperidine-1-carbonyl)nicotinamide], for which the concentration giving a half-maximal response (EC50) was under 0.5 µM. The figure for `COc1ccc(CN2CCC(NC(=O)c3ccc(C(=O)N4CCC(Oc5ccc(S(C)(=O)=O)cc5)CC4)nc3)CC2)cc1` [Compound 237, N-(1-(4-methoxybenzyl)piperidin-4-yl)-6-(4-(4-(methylsulfonyl)phenoxy)piperidine-1-carbonyl)nicotinamide] is 1 to 5 µM; for `COc1cccc(CN2CCC(NC(=O)c3ccc(C(=O)N4CCC(Oc5ccc(S(C)(=O)=O)cc5)CC4)nc3)CC2)c1` [Compound 238, N-(1-(3-methoxybenzyl)piperidin-4-yl)-6-(4-(4-(methylsulfonyl)phenoxy)piperidine-1-carbonyl)nicotinamide] it is 1 to 5 µM. In turn, `CS(=O)(=O)c1ccc(OC2CCN(C(=O)c3ccc(C(=O)NC4CCN(Cc5cccc(OC(F)(F)F)c5)CC4)cn3)CC2)cc1` [Compound 239, 6-(4-(4-(methylsulfonyl)phenoxy)piperidine-1-carbonyl)-N-(1-(3-(trifluoromethoxy)benzyl)piperidin-4-yl)nicotinamide] came in with a concentration for a half-maximal effect (EC50) of 1 to 5 µM.

`N#Cc1ccc(CN2CCC(NC(=O)c3ccc(C(=O)N4CCC(C(=O)c5ccc(N=[N+]=[N-])cc5)CC4)nc3)CC2)cc1` [Compound 240, 6-(4-(4-azidobenzoyl)piperidine-1-carbonyl)-N-(1-(4-cyanobenzyl)piperidin-4-yl)nicotinamide] came in with a concentration giving a half-maximal response (EC50) of under 0.5 µM. The compound `COc1cccc(CN2CCC(NC(=O)c3ccc(C(=O)N4CCC(Oc5ccc(S(C)(=O)=O)cc5)CC4)cn3)CC2)c1` [Compound 241, N-(1-(3-methoxybenzyl)piperidin-4-yl)-5-(4-(4-(methylsulfonyl)phenoxy)piperidine-1-carbonyl)picolinamide] gave a concentration for a half-maximal effect (EC50) of under 0.5 µM. The compound `CS(=O)(=O)c1ccc(OC2CCN(C(=O)c3ccc(C(=O)NC4CCN(Cc5cccc(OC(F)(F)F)c5)CC4)nc3)CC2)cc1` [Compound 242, 5-(4-(4-(methylsulfonyl)phenoxy)piperidine-1-carbonyl)-N-(1-(3-(trifluoromethoxy)benzyl)piperidin-4-yl)picolinamide] yielded a half-maximal effective concentration (EC50) of under 0.5 µM. As for `CN1CCN(c2ccc(C(=O)C3CCN(C(=O)c4ccc(C(=O)NC5CCN(Cc6ccc(C#N)cc6)CC5)cn4)CC3)cc2)CC1` [Compound 243, N-(1-(4-cyanobenzyl)piperidin-4-yl)-6-(4-(4-(4-methylpiperazin-1-yl)benzoyl)piperidine-1-carbonyl)nicotinamide], the half-maximal effective concentration (EC50) is under 0.5 µM.

In the case of `CN1CCN(c2ccc(C(=O)C3CCN(C(=O)c4ccc(C(=O)NC5CCN(Cc6ccc(OC(F)(F)F)cc6)CC5)cn4)CC3)cc2)CC1` [Compound 244, 6-(4-(4-(4-methylpiperazin-1-yl)benzoyl)piperidine-1-carbonyl)-N-(1-(4-(trifluoromethoxy)benzyl)piperidin-4-yl)nicotinamide], the 50% effective concentration (EC50) lay within 5 to 10 µM. `CN1CCN(c2ccc(C(=O)C3CCN(C(=O)c4ccc(C(=O)Nc5ccc(Oc6ccc(F)cc6)nc5)cn4)CC3)cc2)CC1` [Compound 245, N-(6-(4-fluorophenoxy)pyridin-3-yl)-6-(4-(4-(4-methylpiperazin-1-yl)benzoyl)piperidine-1-carbonyl)nicotinamide]: the EC50 is under 0.5 µM.

`N#Cc1ccc(CN2CCC(NC(=O)c3ccc(C(=O)N4CCC(Oc5ccc(S(=O)(=O)C6CC6)cc5)CC4)nc3)CC2)cc1` [Compound 246, N-(1-(4-cyanobenzyl)piperidin-4-yl)-6-(4-(4-(cyclopropylsulfonyl)phenoxy)piperidine-1-carbonyl)nicotinamide] yielded an EC50 of under 0.5 µM.

The term EC50 denotes the concentration giving half of the maximal effect.
